# Key:
# Type in all cases: biochemical
# [1] = target: YOP51 (Yersinia enterocolitica, UniProt P15273); assay: FRET phosphatase assay, YOP51
# Protocol: (§1) For the enzyme activity assay, 2.5 μl of compound, 12.5 μl of enzyme, and 10 μl of substrate (separated by air gaps) are added to columns 3 through 24 by the Biomek FX in a single dispense. After the dispense, the tips are washed with DMSO and water for re-use between each quadrant. Once the assay plates are set up, they are incubated at 27° C. for 45 minutes. Then 20 μl of detection buffer is added to stop the reaction and to allow the Europium antibody (Eu-Ab) and streptavidin-APC to bind to the substrate.
# (§2) The plates are then placed in the plate reader, an Analyst HT. Excitation light at 360 nm is used to excite the Europium antibody with an emission at 620 nm. Fluorescence resonance energy transfer (FRET) from Eu-Ab to APC will only occur when they are in close proximity. Therefore, when an APC emission is observed at 665 nm the enzyme has been inhibited from removing the phosphate group from the substrate. The FRET assay is time-resolved (TR), where there is a delay between excitation light and collection of emission signals. This reduces the amount of stray light created by short-lived fluorescing molecules. The Analyst HT measures APC and Europium emission signals and calculates the ratio between the two intensities. Typical intensities for the Europium is ˜2000 and APC is ˜600.
# (§3) The following compounds were tested by FRET against the listed phosphatases, and the IC50 were obtained. […]
# [2] = target: T1, CD45 (Homo sapiens, UniProt P08575); assay: FRET phosphatase assay, CD45
# T1 sequence (P08575 26-1306): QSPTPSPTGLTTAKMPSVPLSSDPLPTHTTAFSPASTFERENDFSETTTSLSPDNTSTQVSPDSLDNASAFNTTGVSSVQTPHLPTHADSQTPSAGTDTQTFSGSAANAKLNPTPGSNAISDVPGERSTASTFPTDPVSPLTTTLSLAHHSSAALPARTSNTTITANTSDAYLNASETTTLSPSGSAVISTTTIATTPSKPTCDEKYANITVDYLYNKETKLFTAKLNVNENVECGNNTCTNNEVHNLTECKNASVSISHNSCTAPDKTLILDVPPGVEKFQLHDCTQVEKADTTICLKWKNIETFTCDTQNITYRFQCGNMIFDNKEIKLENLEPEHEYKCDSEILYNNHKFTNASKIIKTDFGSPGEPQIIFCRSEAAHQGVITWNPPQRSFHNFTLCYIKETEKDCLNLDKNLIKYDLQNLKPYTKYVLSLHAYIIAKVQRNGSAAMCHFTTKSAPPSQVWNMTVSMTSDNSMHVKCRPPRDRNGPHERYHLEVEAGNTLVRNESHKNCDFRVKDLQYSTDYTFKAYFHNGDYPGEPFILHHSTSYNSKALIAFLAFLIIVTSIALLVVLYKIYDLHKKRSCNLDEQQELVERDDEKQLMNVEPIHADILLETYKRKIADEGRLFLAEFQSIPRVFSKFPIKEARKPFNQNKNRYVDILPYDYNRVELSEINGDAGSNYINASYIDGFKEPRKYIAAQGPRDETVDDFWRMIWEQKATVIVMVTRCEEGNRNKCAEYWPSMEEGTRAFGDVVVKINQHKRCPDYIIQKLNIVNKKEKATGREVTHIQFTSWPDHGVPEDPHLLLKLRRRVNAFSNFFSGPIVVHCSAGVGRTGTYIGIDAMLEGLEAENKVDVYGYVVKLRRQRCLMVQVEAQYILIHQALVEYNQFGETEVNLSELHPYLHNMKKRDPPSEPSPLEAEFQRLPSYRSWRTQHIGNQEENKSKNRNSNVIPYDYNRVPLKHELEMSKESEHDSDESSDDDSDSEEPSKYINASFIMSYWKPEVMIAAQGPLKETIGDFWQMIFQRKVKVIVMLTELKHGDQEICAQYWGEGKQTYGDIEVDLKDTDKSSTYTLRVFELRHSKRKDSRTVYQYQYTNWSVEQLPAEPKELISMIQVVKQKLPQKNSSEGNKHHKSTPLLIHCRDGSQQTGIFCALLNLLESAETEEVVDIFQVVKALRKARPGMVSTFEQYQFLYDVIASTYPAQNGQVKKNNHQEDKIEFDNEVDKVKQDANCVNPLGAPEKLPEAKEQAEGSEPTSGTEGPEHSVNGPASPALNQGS
# Protocol: as §1, §2, §3
# [3] = target: T2, PTPIB (Homo sapiens, UniProt P18031); assay: FRET phosphatase assay, PTPIB
# T2 sequence (P18031 1-435): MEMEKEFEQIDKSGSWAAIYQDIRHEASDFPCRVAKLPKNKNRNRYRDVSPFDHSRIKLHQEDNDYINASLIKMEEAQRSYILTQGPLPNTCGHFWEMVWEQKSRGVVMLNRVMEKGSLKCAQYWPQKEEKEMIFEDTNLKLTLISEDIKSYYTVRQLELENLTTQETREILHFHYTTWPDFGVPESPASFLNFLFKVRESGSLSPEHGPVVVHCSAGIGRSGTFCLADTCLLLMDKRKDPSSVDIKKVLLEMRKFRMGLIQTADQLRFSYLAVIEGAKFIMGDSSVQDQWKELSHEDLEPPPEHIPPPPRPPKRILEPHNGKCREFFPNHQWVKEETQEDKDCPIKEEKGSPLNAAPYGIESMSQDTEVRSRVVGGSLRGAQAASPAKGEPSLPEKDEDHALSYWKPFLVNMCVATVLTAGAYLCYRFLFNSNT
# Protocol: as §1, §2, §3
# Sequence of YOP51 (P15273 whole entry): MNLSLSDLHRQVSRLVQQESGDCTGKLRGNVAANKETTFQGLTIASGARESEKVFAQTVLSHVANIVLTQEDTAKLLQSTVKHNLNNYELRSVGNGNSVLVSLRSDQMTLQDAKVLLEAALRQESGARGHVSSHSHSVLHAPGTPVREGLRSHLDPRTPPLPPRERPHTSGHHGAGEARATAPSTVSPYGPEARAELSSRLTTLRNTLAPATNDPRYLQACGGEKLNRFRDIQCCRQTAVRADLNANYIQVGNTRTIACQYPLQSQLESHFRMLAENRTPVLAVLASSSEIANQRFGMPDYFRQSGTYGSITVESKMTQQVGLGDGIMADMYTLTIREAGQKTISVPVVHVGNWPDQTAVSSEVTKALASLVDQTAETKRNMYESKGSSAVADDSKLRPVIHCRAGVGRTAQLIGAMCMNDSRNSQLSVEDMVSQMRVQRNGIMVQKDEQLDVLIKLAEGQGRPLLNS
compound,measurement,setting,value
CCOC(=O)C(=CC1=C/C(=C/N(C)C)C(=O)O1)C(=O)OCC [AGY- 0046293],IC50,[1],4.18 µM
same,IC50,[2],90 µM
same,IC50,[3],41.1 µM
